Laboratory results published in patent US20230355602A1, “TREATMENT AND/OR PREVENTION OF A VIRAL INFECTION” (priority 2020, published 2023).

Experiments:
[1] = human, in vivo
[2] = tested on: CHIKV; test: Chikungunya virus assay in Huh7 cells (viral titer); format: cell-based
[3] = tested on: A549 cells; test: in vitro; format: cell-based; details: human, 48 h
Protocol: (§1) 12k cells (A549) per well in a 96-well plate. The compounds are added on the next day. 48 hrs treatment. 3-fold serial dilution for ASLAN 003 starting from 10 μM.

[4] = in vitro; format: cell-based; details: human
Protocol: as §1

[5] = in vitro; format: cell-based; details: African green monkey
Protocol: Vero E6 cells were treated with the above compounds ata range of concentrations (0.0001, 0.001, 0.01, 1,10, 30, 50, and 100 μM) and incubated for 4 days. After incubation, the media was removed from the plates and washed once with PBS before addition of alamarBlue Cell Viability Reagent (Thermo Fisher Scientific) diluted 1:10 in media with 2% FCS. Fluorescence was detected after 2.5 h incubation at an excitation wavelength of 570 nm and an emission wavelength of 600 nm on an Infinite 200 Pro multiplate reader (Tecan). Data obtained from compound-treated cells and vehicle-treated cells were normalised against those obtained from untreated cells.

[6] = tested on: SARS-CoV-2-Nluc viruses; test: microbe, parasite or virus in culture; format: cell-based
[7] = clinical; details: human, in vivo
[8] = tested on: Dengue virus (serotypes 1, 2, 3 or 4); test: Dengue virus assay in Huh7 cells (viral titer); format: cell-based
[9] = tested on: SARS-CoV-2 (hCoV-19/Singapore/10/2020); test: Dose-dependent inhibition assay with plaque assay titration in Vero E6 cells; format: cell-based
[10] = tested on: Zika virus; test: Zika virus assay in Huh7 cells (viral titer); format: cell-based
[11] = Severe acute respiratory syndrome coronavirus 2, Vero C1008, 96 h

## COc1cccc(-c2cc(F)c(Nc3ncccc3C(=O)O)c(F)c2)c1 [ASLAN003, 2-(3,5-difluoro-3′-methoxybiphenyl-4-ylamino) nicotinic acid]
[1]
  PK profiles in Asian and Caucasian patients: equivalent
  safety and tolerability, liver enzyme rises: safe and well-tolerated with no evidence of significant liver enzyme rises
  time until full exposure is achieved: ≤ 24 h
[2]
  efficacy (potency) against Chikugunya: sub-micromolar potency
[3]
  IC50: > 10000 nM
  change in A549 cell viability: no change in A549 cell viability
[4]
  IC50 at 48 h: > 10000 nM
[5]
  CC50 at 4 days: 87200 nM
[6]
  efficacy (potency) against SARS-CoV-2: sub-micromolar potency
[6]; Severe acute respiratory syndrome coronavirus 2, 48 h, read-out: SARS-COV-2 Reporter Assay (IC50, μM)
  IC50: 0.812 µM
[7]
  half-life: 18 h
[8]
  efficacy (potency) against Dengue: sub-micromolar potency
[9]; [11]
  EC50: 1.42 nM
  EC90: 3.88 nM
[9]; treated post virus infection, 0.0001 to 100 μM
  inhibition of SARS-CoV-2 in Vero E6 cells (viral titre): Dosage dependent inhibition
[10]
  efficacy (potency) against Zika: sub-micromolar potency
